Tested on: Plasmodium falciparum
Assay: Antimalarial activity against Plasmodium falciparum D6 infected in RBCs assessed as inhibition of [3H]hypoxanthine incorporation after 72 hrs
Assay type: functional, organism-based

Row | SMILES | IC50 [pM]
1 | CC1(C)N=C(N)N=C(N)N1OCCCOc1cc(Cl)c(Cl)cc1Cl | 166
2 | CCc1nc(N)nc(N)c1-c1ccc(Cl)cc1 [PYRIMETHAMINE] | 28
3 | CC1(C)N=C(N)N=C(N)N1c1ccc(Cl)cc1 [CYCLOGUANIL] | 118
4 | CC1(C)N=C(N)N=C(N)N1OCc1ccc(Cl)c(Cl)c1 [CLOCIGUANIL] | 21

Tested on: Plasmodium falciparum
Assay: Ratio of IC50 for Plasmodium falciparum TM91c235 harboring DHFR F57L, S58R, T61M, S117T mutant to IC50 for Plasmodium falciparum D6
Assay type: functional

Row | SMILES | Ratio IC50
5 | CC1(C)N=C(N)N=C(N)N1OCCCOc1cc(Cl)c(Cl)cc1Cl | 5
6 | CC1(C)N=C(N)N=C(N)N1c1ccc(Cl)cc1 [CYCLOGUANIL] | 50
7 | CC1(C)N=C(N)N=C(N)N1OCc1ccc(Cl)c(Cl)c1 [CLOCIGUANIL] | 144

Tested on: Plasmodium falciparum
Assay: Antimalarial activity against Plasmodium falciparum TM91c235 harboring DHFR F57L, S58R, T61M, S117T mutant infected in RBCs assessed as inhibition of [3H]hypoxanthine incorporation after 72 hrs
Assay type: functional, organism-based

Row | SMILES | IC50 [pM]
8 | CC1(C)N=C(N)N=C(N)N1OCCCOc1cc(Cl)c(Cl)cc1Cl | 339
9 | CCc1nc(N)nc(N)c1-c1ccc(Cl)cc1 [PYRIMETHAMINE] | 143000
10 | CC1(C)N=C(N)N=C(N)N1c1ccc(Cl)cc1 [CYCLOGUANIL] | 116000
11 | CC1(C)N=C(N)N=C(N)N1OCc1ccc(Cl)c(Cl)c1 [CLOCIGUANIL] | 3160

Tested on: Plasmodium falciparum
Assay: Ratio of IC50 for Plasmodium falciparum D6 harboring Plasmodium vivax DHFR S58R and S117N mutant to IC50 for Plasmodium falciparum D6 harboring Plasmodium vivax wild type DHFR
Assay type: functional

Row | SMILES | Ratio IC50
12 | CC1(C)N=C(N)N=C(N)N1OCCCOc1cc(Cl)c(Cl)cc1Cl | 10
13 | CC1(C)N=C(N)N=C(N)N1c1ccc(Cl)cc1 [CYCLOGUANIL] | 4
14 | CC1(C)N=C(N)N=C(N)N1OCc1ccc(Cl)c(Cl)c1 [CLOCIGUANIL] | 26

Tested on: Plasmodium falciparum
Assay: Antimalarial activity against Plasmodium falciparum D6 harboring Plasmodium vivax DHFR F57L and S117N mutant infected in RBCs assessed as inhibition of [3H]hypoxanthine incorporation after 72 hrs
Assay type: functional, organism-based

Row | SMILES | IC50 [pM]
15 | CC1(C)N=C(N)N=C(N)N1OCCCOc1cc(Cl)c(Cl)cc1Cl | 1500
16 | CCc1nc(N)nc(N)c1-c1ccc(Cl)cc1 [PYRIMETHAMINE] | 3660
17 | CC1(C)N=C(N)N=C(N)N1c1ccc(Cl)cc1 [CYCLOGUANIL] | 2770
18 | CC1(C)N=C(N)N=C(N)N1OCc1ccc(Cl)c(Cl)c1 [CLOCIGUANIL] | 219

Tested on: Plasmodium falciparum
Assay: Ratio of IC50 for Plasmodium falciparum D6 harboring Plasmodium vivax DHFR S117N mutant to IC50 for Plasmodium falciparum D6 harboring Plasmodium vivax wild type DHFR
Assay type: functional

Row | SMILES | Ratio IC50
19 | CC1(C)N=C(N)N=C(N)N1OCCCOc1cc(Cl)c(Cl)cc1Cl | 6
20 | CC1(C)N=C(N)N=C(N)N1c1ccc(Cl)cc1 [CYCLOGUANIL] | 2
21 | CC1(C)N=C(N)N=C(N)N1OCc1ccc(Cl)c(Cl)c1 [CLOCIGUANIL] | 6

Tested on: Plasmodium falciparum
Assay: Ratio of IC50 for Plasmodium falciparum D6 harboring Plasmodium vivax DHFR F57L, S58R, T61M, S117T mutant to IC50 for Plasmodium falciparum D6 harboring Plasmodium vivax wild type DHFR
Assay type: functional

Row | SMILES | Ratio IC50
22 | CC1(C)N=C(N)N=C(N)N1OCCCOc1cc(Cl)c(Cl)cc1Cl | 44
23 | CC1(C)N=C(N)N=C(N)N1c1ccc(Cl)cc1 [CYCLOGUANIL] | 746
24 | CC1(C)N=C(N)N=C(N)N1OCc1ccc(Cl)c(Cl)c1 [CLOCIGUANIL] | 2565

Tested on: Plasmodium falciparum
Assay: Antimalarial activity against Plasmodium falciparum D6 harboring Plasmodium vivax DHFR S58R and S117N mutant infected in RBCs assessed as inhibition of [3H]hypoxanthine incorporation after 72 hrs
Assay type: functional, organism-based

Row | SMILES | IC50 [pM]
25 | CC1(C)N=C(N)N=C(N)N1OCCCOc1cc(Cl)c(Cl)cc1Cl | 690
26 | CCc1nc(N)nc(N)c1-c1ccc(Cl)cc1 [PYRIMETHAMINE] | 6260
27 | CC1(C)N=C(N)N=C(N)N1c1ccc(Cl)cc1 [CYCLOGUANIL] | 1700
28 | CC1(C)N=C(N)N=C(N)N1OCc1ccc(Cl)c(Cl)c1 [CLOCIGUANIL] | 582

Tested on: Plasmodium falciparum
Assay: Antimalarial activity against Plasmodium falciparum D6 harboring Plasmodium vivax DHFR S117N mutant infected in RBCs assessed as inhibition of [3H]hypoxanthine incorporation after 72 hrs
Assay type: functional, organism-based

Row | SMILES | IC50 [pM]
29 | CC1(C)N=C(N)N=C(N)N1OCCCOc1cc(Cl)c(Cl)cc1Cl | 427
30 | CC1(C)N=C(N)N=C(N)N1c1ccc(Cl)cc1 [CYCLOGUANIL] | 810
31 | CC1(C)N=C(N)N=C(N)N1OCc1ccc(Cl)c(Cl)c1 [CLOCIGUANIL] | 67

Tested on: Plasmodium falciparum
Assay: Antimalarial activity against Plasmodium falciparum D6 harboring Plasmodium vivax wild type DHFR infected in RBCs assessed as inhibition of [3H]hypoxanthine incorporation after 72 hrs
Assay type: functional, organism-based

Row | SMILES | IC50 [pM]
32 | CC1(C)N=C(N)N=C(N)N1OCCCOc1cc(Cl)c(Cl)cc1Cl | 67
33 | CCc1nc(N)nc(N)c1-c1ccc(Cl)cc1 [PYRIMETHAMINE] | 55
34 | CC1(C)N=C(N)N=C(N)N1c1ccc(Cl)cc1 [CYCLOGUANIL] | 429
35 | CC1(C)N=C(N)N=C(N)N1OCc1ccc(Cl)c(Cl)c1 [CLOCIGUANIL] | 22

Tested on: Plasmodium falciparum
Assay: Antimalarial activity against Plasmodium falciparum D6 harboring Plasmodium vivax DHFR F57L, S58R, T61M, S117T mutant infected in RBCs assessed as inhibition of [3H]hypoxanthine incorporation after 72 hrs
Assay type: functional, organism-based

Row | SMILES | IC50 [pM]
36 | CC1(C)N=C(N)N=C(N)N1OCCCOc1cc(Cl)c(Cl)cc1Cl | 2930
37 | CCc1nc(N)nc(N)c1-c1ccc(Cl)cc1 [PYRIMETHAMINE] | 467000
38 | CC1(C)N=C(N)N=C(N)N1c1ccc(Cl)cc1 [CYCLOGUANIL] | 320000
39 | CC1(C)N=C(N)N=C(N)N1OCc1ccc(Cl)c(Cl)c1 [CLOCIGUANIL] | 56400

Tested on: Plasmodium falciparum
Assay: Ratio of IC50 for Plasmodium falciparum D6 harboring Plasmodium vivax DHFR F57L and S117N mutant to IC50 for Plasmodium falciparum D6 harboring Plasmodium vivax wild type DHFR
Assay type: functional

Row | SMILES | Ratio IC50
40 | CC1(C)N=C(N)N=C(N)N1OCCCOc1cc(Cl)c(Cl)cc1Cl | 22
41 | CC1(C)N=C(N)N=C(N)N1c1ccc(Cl)cc1 [CYCLOGUANIL] | 6
42 | CC1(C)N=C(N)N=C(N)N1OCc1ccc(Cl)c(Cl)c1 [CLOCIGUANIL] | 10

Tested on: Plasmodium falciparum
Assay: Ratio of IC50 for Plasmodium falciparum D6 harboring Plasmodium vivax DHFR S58R, T61M and S117N mutant to IC50 for Plasmodium falciparum D6 harboring Plasmodium vivax wild type DHFR
Assay type: functional

Row | SMILES | Ratio IC50
43 | CC1(C)N=C(N)N=C(N)N1OCCCOc1cc(Cl)c(Cl)cc1Cl | 2
44 | CC1(C)N=C(N)N=C(N)N1c1ccc(Cl)cc1 [CYCLOGUANIL] | 1
45 | CC1(C)N=C(N)N=C(N)N1OCc1ccc(Cl)c(Cl)c1 [CLOCIGUANIL] | 3

Tested on: Plasmodium falciparum
Assay: Antimalarial activity against Plasmodium falciparum D6 harboring Plasmodium vivax DHFR S58R, T61M and S117N mutant infected in RBCs assessed as inhibition of [3H]hypoxanthine incorporation after 72 hrs
Assay type: functional, organism-based

Row | SMILES | IC50 [pM]
46 | CC1(C)N=C(N)N=C(N)N1OCCCOc1cc(Cl)c(Cl)cc1Cl | 105
47 | CCc1nc(N)nc(N)c1-c1ccc(Cl)cc1 [PYRIMETHAMINE] | 2810
48 | CC1(C)N=C(N)N=C(N)N1c1ccc(Cl)cc1 [CYCLOGUANIL] | 587
49 | CC1(C)N=C(N)N=C(N)N1OCc1ccc(Cl)c(Cl)c1 [CLOCIGUANIL] | 73

Reference: ChEMBL document CHEMBL1671704, “Defining the role of mutations in Plasmodium vivax dihydrofolate reductase-thymidylate synthase gene using an episomal Plasmodium falciparum transfection system” (Antimicrob Agents Chemother, 2010)
